{
  "source": "patent US20250154212A1",
  "about": "“METHOD OF DISRUPTING MEMORY AND LIPOPEPTIDE FOR USE IN SUCH METHOD” (The Research Foundation for The State University of New York, priority 2023, published 2025)",
  "test_system": "late-LTP in hippocampal slices of PKMζ-null mice",
  "assay": "Late-LTP recording (fEPSP) in hippocampal slices of PKMζ-null mice",
  "type": "cell-based, mouse",
  "details": "for effect on late-LTP, tetanized pathway: 10 μM applied 3 h post-tetanization; for effect on baseline synaptic transmission, untetanized pathway: 10 μM in bath",
  "experimental": "Acute mouse hippocampal slices (450 μm) were prepared as previously described (17, 73). Hippocampi from 2-6-month-old male C57/B6 or PKM ζ-null mice as previously described (17) were dissected, bathed in ice-cold dissection buffer, and sliced with a McIlwain tissue slicer in a cold room (4° C.). The dissection buffer contained (in mM): 125 NaCl, 2.5 KCl, 1.25 NaH2PO4, 26 NaHCO3, 11 glucose, 10 MgCl2, and 0.5 CaCl2), and was bubbled with 95% O2/5% CO2 to maintain pH at 7.4. After dissection the slices were immediately transferred into an Oslo-type interface recording chamber (31.5±1° C.) (73). The recording superfusate consisted of (in mM): 118 NaCl, 3.5 KCl, 2.5 CaCl2), 1.3 MgSO4, 1.25 NaH2PO4, 24 NaHCO3, and 15 glucose, bubbled with 95% O2/5% CO2, with a flow rate of 0.5 ml/min. In a subset of experiments a custom-made recirculation system employing piezoelectric pumps was used for recycling the superfusate (Bartels Mikrotechnik GmbH, Dortmund, Germany) (73).\nField EPSPs were recorded with a glass extracellular recording electrode (2-5 M (2) placed in the CA1 st. radiatum, and concentric bipolar stimulating electrodes (CBBRE75 and 30200; FHC, Bowdoin, ME) were placed on either side within CA3 or CA1. Test stimulation rate was once every 30 sec, alternating every 15 sec between stimulating electrodes. Based upon a pre-established exclusion criterion, a slice was not used if fEPSP spike threshold was <2 mV on initial input-output analysis. Pathway independence was confirmed by the absence of paired-pulse facilitation between the two pathways. A single stimulating electrode was used for PLA/immunocytochemistry with a test stimulation rate of once every 30 sec. The high-frequency stimulation, optimized to produce a relatively rapid onset of protein synthesis-dependent late-LTP (74), consisted of two 100 Hz-1 s tetanic trains, at 25% of spike threshold, spaced 20 sec apart. The maximum slope of the rise of the fEPSP was analyzed on a PC using the WinLTP data acquisition program (75).\nReplicates are biological because there is only one measurement for each sample. Drug/vehicle comparisons were performed blindly. Sample sizes vary for the different experimental approaches (biochemistry, slice physiology, and behavior) and were established by power analyses based on effect size estimates from published work or preliminary experiments. The observed effect sizes for binary comparisons are reported as Cohen's d and as η^2p for ANOVA effects. Multi-factor comparisons were performed using ANOVA with repeated measures, as appropriate. Two-population Student's/tests were performed to compare protein immunofluorescence intensity between control and potentiated hippocampal slices. For LTP experiments, the responses were first normalized to the mean of the 30 min period prior to tetanization (or equivalent in control pathways), and then the means over 5 min periods were used for statistical comparisons (e.g., pre-tetanization, beginning and end of drug application). Paired Student's t tests were used to compare the change in the potentiated response at time points at the beginning and end of drug application. The degrees of freedom for the critical t values of the/tests and the F values of the ANOVAs are reported as subscripts. Post-hoc multiple comparisons were performed by Newman-Keuls tests as appropriate. Statistical significance was accepted at P<0.05 or appropriate Bonferroni correction for multiple comparisons. […]",
  "note": "Entries after “also recorded” stand apart in the source; their conditions may differ. Where no end group is shown, it is not given here. The star is where a group is joined. Myristoyl = CCCCCCCCCCCCCC(=O)*",
  "data": [
    {"molecule": "O=S(=O)(O)c1cc(O)c2c(S(=O)(=O)O)cc(S(=O)(=O)O)cc2c1", "note": "[ζ-stat, 1-naphthol-3,6,8-trisulphonic acid]", "values": [
      {"measurement": "effect on late-LTP, tetanized pathway", "result": "has no effect on late-LTP maintenance"},
      {"measurement": "effect on late-LTP, tetanized pathway", "setting": "listed as z-stat", "result": "has no effect on late-LTP"},
      {"measurement": "effect on baseline synaptic transmission, untetanized pathway", "result": "has no effect on late-LTP or baseline synaptic transmission"}
    ]},
    {"molecule": "myr-N-FVRNSLERRSVRMKRPS-C (Myristoyl-FVRNSLERRSVRMKRPS) [K-ZAP]", "values": [
      {"measurement": "effect on late-LTP, tetanized pathway", "result": "has no effect on late-LTP maintenance; also recorded: has no effect on PKMz-null-LTP"},
      {"measurement": "effect on baseline synaptic transmission, untetanized pathway", "result": "no effect"}
    ]}
  ]
}
